Experimental data from PubChem BioAssay (NCI).
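Method: 48-hour compound exposure of cells in 96-well plates, five concentrations, linear interpolation of endpoints. Here, GI50 denotes the concentration required for 50% inhibition of growth. TGI is the concentration that stops growth completely.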

Key:
Assay in all cases: NCI-60 cell line screen, 48 h
786-0 renal = system: 786-0 renal
A498 renal = system: A498 renal
A549 NSCLC = system: A549 NSCLC
ACHN renal = system: ACHN renal
BT-549 breast = system: BT-549 breast
CAKI-1 renal = system: CAKI-1 renal
CCRF-CEM leukemia = system: CCRF-CEM leukemia
COLO 205 colon = system: COLO 205 colon
DU-145 prostate = system: DU-145 prostate
EKVX NSCLC = system: EKVX NSCLC
HCC-2998 colon = system: HCC-2998 colon
HCT-116 colon = system: HCT-116 colon
HCT-15 colon = system: HCT-15 colon
HL-60(TB) leukemia = system: HL-60(TB) leukemia
HOP-62 NSCLC = system: HOP-62 NSCLC
HOP-92 NSCLC = system: HOP-92 NSCLC
HS 578T breast = system: HS 578T breast
HT29 colon = system: HT29 colon
IGROV1 ovarian = system: IGROV1 ovarian
K-562 leukemia = system: K-562 leukemia
KM12 colon = system: KM12 colon
LOX IMVI melanoma = system: LOX IMVI melanoma
M14 melanoma = system: M14 melanoma
MALME-3M melanoma = system: MALME-3M melanoma
MCF7 breast = system: MCF7 breast
MDA-MB-231 breast = system: MDA-MB-231 breast
MDA-MB-435 = system: MDA-MB-435
MOLT-4 leukemia = system: MOLT-4 leukemia
NCI-H226 lung = system: NCI-H226 lung
NCI-H460 lung = system: NCI-H460 lung
NCI-H522 lung = system: NCI-H522 lung
NCI/ADR-RES ovarian = system: NCI/ADR-RES ovarian
OVCAR-3 ovarian = system: OVCAR-3 ovarian
OVCAR-4 ovarian = system: OVCAR-4 ovarian
OVCAR-5 ovarian = system: OVCAR-5 ovarian
OVCAR-8 ovarian = system: OVCAR-8 ovarian
PC-3 prostate = system: PC-3 prostate
RPMI-8226 leukemia = system: RPMI-8226 leukemia
RXF 393 renal = system: RXF 393 renal
SF-268 CNS = system: SF-268 CNS
SF-295 CNS = system: SF-295 CNS
SF-539 CNS = system: SF-539 CNS
SK-MEL-2 melanoma = system: SK-MEL-2 melanoma
SK-MEL-28 melanoma = system: SK-MEL-28 melanoma
SK-MEL-5 melanoma = system: SK-MEL-5 melanoma
SK-OV-3 ovarian = system: SK-OV-3 ovarian
SN12C renal = system: SN12C renal
SNB-19 CNS = system: SNB-19 CNS
SNB-75 CNS = system: SNB-75 CNS
SR leukemia = system: SR leukemia
SW-620 colon = system: SW-620 colon
T-47D breast = system: T-47D breast
TK-10 renal = system: TK-10 renal
U251 CNS = system: U251 CNS
UACC-257 melanoma = system: UACC-257 melanoma
UO-31 renal = system: UO-31 renal

O=C1C2=C(C(=O)c3c(O)cccc31)C(c1ccco1)c1sc(=O)[nH]c1S2 (stereo unspecified)
GI50 (786-0 renal): 7.09 µM | TGI (786-0 renal): 24.2 µM | GI50 (A498 renal): 3.48 µM | TGI (A498 renal): 9.69 µM | GI50 (A549 NSCLC): 1.78 µM | TGI (A549 NSCLC): 3.63 µM | GI50 (ACHN renal): 4.08 µM | TGI (ACHN renal): 16.1 µM | GI50 (BT-549 breast): 1.64 µM | TGI (BT-549 breast): 3.2 µM | GI50 (CAKI-1 renal): 3.29 µM | TGI (CAKI-1 renal): 13.9 µM | GI50 (CCRF-CEM leukemia): 3.29 µM | TGI (CCRF-CEM leukemia): > 100 µM | GI50 (COLO 205 colon): 1.89 µM | TGI (COLO 205 colon): 3.61 µM | GI50 (DU-145 prostate): 1.55 µM | TGI (DU-145 prostate): 3.01 µM | GI50 (EKVX NSCLC): 6.75 µM | TGI (EKVX NSCLC): 19.4 µM | GI50 (HCC-2998 colon): 2.5 µM | TGI (HCC-2998 colon): 5.51 µM | GI50 (HCT-116 colon): 2.36 µM | GI50 (HCT-15 colon): 1.75 µM | TGI (HCT-15 colon): 3.88 µM | GI50 (HL-60(TB) leukemia): 1.82 µM | TGI (HL-60(TB) leukemia): 6.09 µM | GI50 (HOP-62 NSCLC): 2.04 µM | TGI (HOP-62 NSCLC): 3.74 µM | GI50 (HOP-92 NSCLC): 3.15 µM | TGI (HOP-92 NSCLC): 8.08 µM | GI50 (HS 578T breast): 2.2 µM | TGI (HS 578T breast): 6.56 µM | GI50 (HT29 colon): 3.31 µM | TGI (HT29 colon): 9.25 µM | GI50 (IGROV1 ovarian): 2.51 µM | TGI (IGROV1 ovarian): 6.14 µM | GI50 (K-562 leukemia): 2.84 µM | TGI (K-562 leukemia): > 100 µM | GI50 (KM12 colon): 3.71 µM | TGI (KM12 colon): 31.3 µM | GI50 (LOX IMVI melanoma): 2.21 µM | TGI (LOX IMVI melanoma): 7.55 µM | GI50 (M14 melanoma): 1.06 µM | TGI (M14 melanoma): 2.37 µM | GI50 (MALME-3M melanoma): 0.755 µM | TGI (MALME-3M melanoma): 2 µM | GI50 (MCF7 breast): 1.39 µM | TGI (MCF7 breast): 3.34 µM | GI50 (MDA-MB-231 breast): 2.73 µM | TGI (MDA-MB-231 breast): 9.08 µM | GI50 (MDA-MB-435): 1.16 µM | TGI (MDA-MB-435): 2.47 µM | GI50 (MOLT-4 leukemia): 2.71 µM | TGI (MOLT-4 leukemia): 9.88 µM | GI50 (NCI-H226 lung): 2.18 µM | TGI (NCI-H226 lung): 5.46 µM | GI50 (NCI-H460 lung): 1.54 µM | TGI (NCI-H460 lung): 3.48 µM | GI50 (NCI-H522 lung): 2.31 µM | TGI (NCI-H522 lung): 6.99 µM | GI50 (NCI/ADR-RES ovarian): 3.02 µM | TGI (NCI/ADR-RES ovarian): 12.3 µM | GI50 (OVCAR-3 ovarian): 2.86 µM | TGI (OVCAR-3 ovarian): 14 µM | GI50 (OVCAR-4 ovarian): 1.79 µM | TGI (OVCAR-4 ovarian): 3.95 µM | GI50 (OVCAR-5 ovarian): 2.13 µM | TGI (OVCAR-5 ovarian): 4.58 µM | GI50 (OVCAR-8 ovarian): 2.46 µM | TGI (OVCAR-8 ovarian): 8.97 µM | GI50 (PC-3 prostate): 2.75 µM | TGI (PC-3 prostate): 21.6 µM | GI50 (RPMI-8226 leukemia): 2.62 µM | TGI (RPMI-8226 leukemia): 9.83 µM | GI50 (RXF 393 renal): 2.02 µM | TGI (RXF 393 renal): 5.57 µM | GI50 (SF-268 CNS): 3.48 µM | TGI (SF-268 CNS): 19.2 µM | GI50 (SF-295 CNS): 1.98 µM | TGI (SF-295 CNS): 3.59 µM | GI50 (SF-539 CNS): 1.93 µM | TGI (SF-539 CNS): 3.69 µM | GI50 (SK-MEL-2 melanoma): 3.51 µM | TGI (SK-MEL-2 melanoma): 16.4 µM | GI50 (SK-MEL-28 melanoma): 1.87 µM | TGI (SK-MEL-28 melanoma): 3.72 µM | GI50 (SK-MEL-5 melanoma): 1.59 µM | TGI (SK-MEL-5 melanoma): 3 µM | GI50 (SK-OV-3 ovarian): 15.5 µM | TGI (SK-OV-3 ovarian): 29.6 µM | GI50 (SN12C renal): 1.74 µM | TGI (SN12C renal): 3.49 µM | GI50 (SNB-19 CNS): 2.6 µM | TGI (SNB-19 CNS): 7.33 µM | GI50 (SNB-75 CNS): 3.17 µM | TGI (SNB-75 CNS): 7.61 µM | GI50 (SR leukemia): 3.05 µM | TGI (SR leukemia): 69.5 µM | GI50 (SW-620 colon): 3.28 µM | TGI (SW-620 colon): 10.5 µM | GI50 (T-47D breast): 2.87 µM | TGI (T-47D breast): 13 µM | GI50 (TK-10 renal): 12.3 µM | TGI (TK-10 renal): 26.4 µM | GI50 (U251 CNS): 3.07 µM | TGI (U251 CNS): 10.1 µM | GI50 (UACC-257 melanoma): 1.57 µM | TGI (UACC-257 melanoma): 3.26 µM | GI50 (UO-31 renal): 2.56 µM | TGI (UO-31 renal): 13.5 µM
